The text below walks through data of ChEMBL document CHEMBL3507680, “University of Dundee, Gates Library screen for HepG2 cell viability”.

The nature of the series: Human HepG2 cell viability assay in 384 well format. As to conditions: HepG2 cells, read-out: Inhibition. On the set-up: dose 125 nL, time 70.5 hour; concentration not given beside the values. It counts as toxicity, cell-based.
`O=C(Cc1cccs1)N1CCOC(c2cccc(O)c2)C1` (stereo not given): the cytotoxicity at 70.5 h came out at 0.631%.

In the case of `CC(=O)NC1CC(C)(C)Cc2c1cnn2-c1cccc(F)c1` (stereo not given), the cytotoxicity at 70.5 h is -9.9%.

`CCN(CC)CCNC(=O)c1ccc(-n2ccc3ccccc32)s1`: the cytotoxicity at 70.5 h came to 1.6%. Turning to `Cc1nc(N2CCN(C)CC2)ncc1C(=O)N1CCCCC1`, the cytotoxicity at 70.5 h is -0.181%. In the case of `Cc1cccc(CN2C(=O)CCC23CCN(Cc2ccoc2)CC3)n1`, the cytotoxicity at 70.5 h was -0.993%. For `Cn1cc(N2C(=O)CC[C@@H]3[C@H]2CCN3C(=O)c2cscn2)cn1`, the cytotoxicity at 70.5 h is -10.2%. As to `CCCN(CC1COc2ccccc2O1)C(=O)c1ncoc1CC` (stereo not given), the cytotoxicity at 70.5 h was -7.46%. The figure for `COc1cc(C)nc(N2CCN(C(=O)c3cc(C)no3)CC2)n1` is 26.3%; for `Cc1cc(CNC(=O)c2cn(CCC3CCCCN3)nn2)on1` (stereo not given) it is -5.72%; for `CCC(CC)c1cc(CNC(=O)N2CCCN(C(C)=O)CC2)on1` it is -3.25%. As for `O=C(CCc1cscn1)N1CCCC(n2ccnc2)C1` (stereo not given), the cytotoxicity at 70.5 h is 2.29%. In the case of `Cc1noc(CNC(=O)CN(C)c2nc3c(C)ccc(C)c3s2)n1`, the cytotoxicity at 70.5 h came to 12.2%. The figure for `CC(C)CC(=O)NCCn1nc(C2CCNC2)c2cccnc21` (stereo not given) is -2.13%; for `CC(C)Oc1cccc(C(=O)C2CCCN(C(=O)c3ccccn3)C2)c1` (stereo not given) it is -8.75%; for `COC(CNC(=O)CNC(=O)c1ccccc1)c1cccc(Cl)c1` (stereo not given) it is -2.92%. As to `CC1CCN(c2ncc(C#N)c(N)n2)CC1`, the cytotoxicity at 70.5 h was -3.5%. For the compound `O=C(CCN1CCCC1c1cccs1)N1CCc2sccc2C1` (stereo not given), the cytotoxicity at 70.5 h is -13.7%.

For `O=c1[nH]c2ncccc2n1C1CCCCC1`, the cytotoxicity at 70.5 h is -6.95%. For `COC(=O)C(C)(C)NC(=O)c1cc2sc(N(C)C)nc2s1`, the cytotoxicity at 70.5 h is -13.9%. Regarding `O=C(Cn1nc(C(F)(F)F)c(Cl)c1C1CC1)NN1CCOCC1`, the cytotoxicity at 70.5 h amounted to 12.9%. For `COC[C@@]12CCO[C@@H]1CCN(C(=O)C1CCSCC1)C2`, the cytotoxicity at 70.5 h is -5.18%. For `O=C(NCC(=O)N1CCCC1)c1nn(-c2ccccc2F)cc1O`, the cytotoxicity at 70.5 h turned out to be 3.63%. As for `CCC(C(=O)NC1(C(N)=O)CCCC1)n1cccn1` (stereo not given), the figure is -13.8%; as for `CC(C)=CCN1C[C@H]2CC[C@@H]1CN(C(=O)c1ccc3c(c1)OCO3)C2`, 1.98%. As for `Cc1cc(C)n(C2CN(CC(O)c3ccc(S(C)(=O)=O)cc3)C2)n1` (stereo not given), the figure is 0.799%; as for `CSc1ccc(-n2ccnc2-c2cc3n(n2)CCNC3)cc1`, 25.5%; as for `Cc1nn(C)c(C)c1-c1ccnc(N(C)Cc2noc(C(C)C)n2)n1`, 7.17%. Consider `CCOc1cc(CNc2nnn(C)n2)ccc1OCc1ccc(Cl)cc1`, for which the cytotoxicity at 70.5 h is -10.2%. As for `CN1CCN(C2CCN(CC(O)c3ccccc3F)CC2)C1=O` (stereo not given), the cytotoxicity at 70.5 h was 16.4%.

Regarding `Cc1noc(C(C)C)c1C(=O)NCc1cccc(N(C)C)c1`, the cytotoxicity at 70.5 h came out at 12.6%. As for `CN(C)c1cnn(CC(=O)N2CCN(c3ccccc3)CC2)c(=O)c1`, the cytotoxicity at 70.5 h was -5.83%. Regarding `CCCN(CCc1cccc(F)c1)c1ccc2nnnn2n1`, the cytotoxicity at 70.5 h was -22.2%. The figure for `CNc1snc(C)c1C(=O)N1CCCC(n2cc(C)cn2)C1` (stereo not given) is -8.17%. With `O=C(CN1CCC(C(=O)c2cc(F)ccc2F)CC1)NC1CCCC1`, the cytotoxicity at 70.5 h was 24.6%. In the case of `COc1ccnc(N(C)Cc2ccccc2OC(F)(F)F)n1`, the cytotoxicity at 70.5 h was -1.49%.

For `O=S(=O)(NCC1CCN(CCN2CCOCC2)C1)c1ccccc1F` (stereo not given), the cytotoxicity at 70.5 h was 13.9%. As for `Cn1cc(-c2nc(CN3CCN(CCO)CC3)cs2)cn1`, the figure is 12.2%; as for `CCC(=O)NC(c1cccnc1)c1cc(C)ccc1C` (stereo not given), -12.3%. Regarding `CC(=O)N1CCC(N2CCOC[C@H]2c2nc(-c3ccccc3)c[nH]2)CC1`, the cytotoxicity at 70.5 h was -2.43%.

With `CNc1nc(C(=O)N2CCn3nc(C(=O)OC)cc3C2)cs1`, the cytotoxicity at 70.5 h was -4.4%. The figure for `CSc1ccc(C(C(=O)O)N2CCC(CO)CC2)cc1` (stereo not given) is 25.1%; for `COC(=O)[C@H](C)NC(=O)CSCc1nc2sc(C(C)C)cc2c(=O)[nH]1` it is -9.3%. The figure for `COCC(=O)N1CC(c2n[nH]cc2C)C1` is -6.26%; for `c1ccc(OCC2CC2)c(CNC2CCc3ncnn3C2)c1` (stereo not given) it is -7.19%. For `COCCOCCNS(=O)(=O)C1CS(=O)(=O)c2ccccc21` (stereo not given), the cytotoxicity at 70.5 h was -7.79%. On to `CN(CCC#N)C(=O)C(C)(C)Oc1ccc(C(N)=O)cc1`, for which the cytotoxicity at 70.5 h came to 20.4%. As for `COc1ccccc1N1CCN(C(=O)Cn2nc(C)cc2C)CC1(C)C`, the figure is -14.1%; as for `Cc1ccc(CN[C@@H]2COC[C@H]2Cc2cc(C)no2)cc1`, -7.63%. On to `Cc1nc(CSCCC(=O)NCc2ccncc2)cs1`, for which the cytotoxicity at 70.5 h was -6.44%. `CN1C(=O)C(C)(C)COc2cc(NS(=O)(=O)c3ccccc3F)ccc21`: the cytotoxicity at 70.5 h was 16.6%. The figure for `CCSc1cc(C(=O)NC2CCN(C(=O)c3ccncc3)CC2)ccn1` is -0.0904%; for `COc1nn(C)cc1C(=O)NCC(=O)Nc1cccnc1` it is -10.6%. As for `O=C(NC1CCCN(c2ccccc2Cl)C1)c1nc(=O)[nH][nH]1` (stereo not given), the figure is 25.3%. In the case of `Cc1cnn(CCNCc2csc(-c3ccco3)n2)c1`, the cytotoxicity at 70.5 h came out at 18%. With `COCc1csc(NC(=O)NCc2ccc(C)s2)n1`, the cytotoxicity at 70.5 h is 1.09%. On to `CCc1ccc(CN(C(=O)CCn2cc(S(N)(=O)=O)cn2)C2CC2)cc1`, for which the cytotoxicity at 70.5 h was -2.81%. For the compound `Cc1cc(F)ccc1CN1CCCC2(C1)OCCO2`, the cytotoxicity at 70.5 h was -3.36%.

Take `CC(=O)N1CCN(C(=O)CCNc2snc(Cl)c2C#N)CC1`: the cytotoxicity at 70.5 h was -10.6%. As for `Cc1cnn(CC(C)NCc2nc(-c3ccco3)no2)c1` (stereo not given), the figure is 2.25%; as for `CCc1nccn1C1CCCN(C(=O)Cc2n[nH]c3ccccc23)C1` (stereo not given), -1.24%. With `CCCn1nc2c(cc1=O)CN(CC(=O)Nc1ccncc1)CC2`, the cytotoxicity at 70.5 h is -17.2%.

On to `COC(=O)C(O)C1CCN(CCc2ccncc2)CC1` (stereo not given), for which the cytotoxicity at 70.5 h was 9.73%. For the compound `CCOc1ccnc(N2CCCN(c3nc(C4CC4)ns3)CC2)n1`, the cytotoxicity at 70.5 h was 4.37%. Turning to `CCc1nc(CC(=O)NCC(Cc2ccc(F)cc2)C(N)=O)cs1` (stereo not given), the cytotoxicity at 70.5 h stood at 29.6%. `CN(C)c1ccc(C(=O)NCC2(c3ccccc3)CCOCC2)cc1`: the cytotoxicity at 70.5 h was -10.7%. With `CN(C)CCNC(=O)CCC1CCN(C(=O)c2ccc(Cl)cc2O)CC1`, the cytotoxicity at 70.5 h was -8.44%. Take `CNc1cc(C2CCCN2Cc2ccc(OCC(=O)O)cc2)ccn1` (stereo not given): the cytotoxicity at 70.5 h is -5.44%.

As for `CCCc1nc(CN2CCCC(Cn3cncn3)C2)no1` (stereo not given), the cytotoxicity at 70.5 h stood at 3.03%. For `COCc1nc(C(=O)N2CCCC2c2cccs2)cs1` (stereo not given), the cytotoxicity at 70.5 h is -7.86%. On to `CCCOCC(=O)NS(=O)(=O)c1ccc2c(c1)OCCCO2`, for which the cytotoxicity at 70.5 h came out at 19.6%.

`CC[C@@H](c1ccccc1)n1c(C2CC2)n[nH]c1=O`: the cytotoxicity at 70.5 h was -13%.

As for `CC(C)Cc1noc(CN(C)C(=O)C2COc3ccccc3C2)n1` (stereo not given), the cytotoxicity at 70.5 h is -14.4%. Take `COc1ccc(-n2cc(CNC(=O)c3cscn3)nn2)cc1`: the cytotoxicity at 70.5 h is -17.7%. As to `Cc1cccc(C(C(=O)N2CC(c3ccncc3)C2)N(C)C)c1` (stereo not given), the cytotoxicity at 70.5 h was found to be 12.4%.

Regarding `Cn1cncc1CNC1CC2(CCN(S(C)(=O)=O)CC2)c2ccccc21` (stereo not given), the cytotoxicity at 70.5 h was -2.27%. With `CN(CC(=O)N(C)C)Cc1ccc(C#N)cc1F`, the cytotoxicity at 70.5 h was 11.5%. Turning to `COc1nn(C)cc1C(=O)N1CCC(C)CC1`, the cytotoxicity at 70.5 h amounted to 26.1%. Turning to `Cc1nn(-c2ccccc2)nc1C(=O)N1CCCC1c1cnn(C)c1` (stereo not given), the cytotoxicity at 70.5 h was -18.4%. `CN(C1CCN(c2ccccn2)CC1)S(=O)(=O)N1CCOCC1`: the cytotoxicity at 70.5 h is -7.57%. Turning to `O=C(O)C1(Oc2ccccc2F)CCN(C/C=C/c2ccco2)CC1`, the cytotoxicity at 70.5 h was -7.74%. As for `CCc1nc(C2CCCN2CC(=O)Nc2nncs2)no1` (stereo not given), the figure is -2.48%; as for `O=C(NCCN1CCOCC1)N(Cc1ccoc1)C1CCCCC1`, 1.39%; as for `O=C1OCCCN1Cc1nc(-c2ccncc2)no1`, -12.6%. Take `COc1ccc(NC(=O)NCC(O)c2ccccc2F)c(OC)c1` (stereo not given): the cytotoxicity at 70.5 h amounted to 19.2%. As to `CCn1cnnc1C1CCN(C(=O)c2cnc(C3CC3)s2)CC1`, the cytotoxicity at 70.5 h is -10.2%. The figure for `O=C1NC[C@]2(CC[C@@H](C(=O)N3CCCC(O)C3)CC2)Oc2ccccc21` (stereo not given in full) is -7.1%. The figure for `CSCCNC(=O)c1ccc(OC2CCN(CC(C)(C)C)CC2)c(Cl)c1` is -7.8%; for `CC(C)n1ccnc1CN1CCCN(C(=O)CN(C)C2CC2)CC1` it is -5.01%. Regarding `CCN(CC)C(=O)CNC(=O)N1CCC(c2ccccc2)C1` (stereo not given), the cytotoxicity at 70.5 h was -6.54%. Consider `CNC(=O)c1cc(-n2ccnc2-c2cnc(N(C)C)nc2)ccc1OC`, for which the cytotoxicity at 70.5 h came out at 3.46%. Take `CC(C)C(C(=O)N(C)C)c1cccc(Cl)c1` (stereo not given): the cytotoxicity at 70.5 h was -11%. Take `Cc1cnc(CNC(=O)CCCn2cnc3ccccc3c2=O)cn1`: the cytotoxicity at 70.5 h was found to be 6.51%. `CN(C)c1ncccc1NC(=O)C1CN(Cc2ccccc2)CCO1` (stereo not given): the cytotoxicity at 70.5 h is -2.14%.

`Cc1ccc(OCCCNC(=O)C2(C)CC(=O)N3C=CC=CC3=N2)cc1` (stereo not given): the cytotoxicity at 70.5 h is -3.61%. The figure for `COc1ccc(CN2C[C@@H]3CN(S(=O)(=O)C4CC4)C[C@@H]3C2=O)cc1` is -9.53%; for `CC(C)Cc1cc(C(=O)NC(C)(CO)CO)n(C)n1` it is -16.8%; for `Cc1ccc(CNCC2CCN(CCO)CC2)cc1` it is 39.2%. For `c1nc(N2CCOC(Cn3cncn3)C2)c2cc[nH]c2n1` (stereo not given), the cytotoxicity at 70.5 h is -6.11%.

In the case of `CCCC(C)C(=O)NCc1cn2cc(Br)ccc2n1` (stereo not given), the cytotoxicity at 70.5 h was -7.73%. As for `COCCNc1ncc(-c2cc(C)no2)c(-c2ccco2)n1`, the figure is 8.77%.
